The target of one assay is T1, human V1a receptor (Homo sapiens, UniProt P37288).
T1 construct: expressed in transfected cells; host or cells: CHO K1 (ATCC), also stably transfected with a modified aequorin
In words: Cellular in vitro assay for determining vasopressin receptor activity, V1a receptor cell line (CHO, aequorin luminescence). The note with it: for IC50: CHO cell line transfected with human V1a receptor, [Arg]-vasopressin at EC50 concentration, read-out: IC50 hV1a; for ratio IC50 hV2/hV1a: selectivity ratio IC50 hV2 / IC50 hV1a. The format is cell-based. As for the experimental part: (§1) B-1. Cellular In Vitro Assay for Determining Vasopressin Receptor Activity
(§2) The identification of agonists and antagonists of the V1a and V2 vasopressin receptors from humans, rats and dogs as well as the quantification of the activity of the compounds of the invention is carried out using recombinant cell lines. These cell lines originally derive from a hamster's ovary epithelial cell (Chinese Hamster Ovary, CHO K1, ATCC: American Type Culture Collection, Manassas, Va. 20108, USA). The test cell lines constitutively express the human, rat or dog V1a or V2 receptors. In case of the Gαq-coupled V1a receptors, cells are also stably transfected with a modified form of the calcium-sensitive photoproteins aequorin (human and rat V1a) or obelin (dog V1a), which, after reconstitution with the cofactor coelenterazine, emit light when there are increases in free calcium concentrations [Rizzuto R, Simpson A W, Brini M, Pozzan T, Nature 358, 325-327 (1992); Illarionov B A, Bondar V S, Illarionova V A, Vysotski E S, Gene 153 (2), 273-274 (1995)]. The resulting vasopressin receptor cells react to stimulation of the recombinantly expressed V1a receptors by intracellular release of calcium ions, which can be quantified by the resulting photoprotein luminescence. The Gs-coupled V2 receptors are stably transfected into cell lines expressing the gene for firefly luciferase under control of a CRE-responsible promoter. Activation of V2 receptors induces the activation of the CRE-responsive promoter via cAMP increase, thereby inducing the expression of firefly luciferase. The light emitted by photoproteins of V1a cell lines as well as the light emitted by firefly luciferase of V2 cell lines corresponds to the activation or inhibition of the respective vasopressin receptor. The bioluminescence of the cell lines is detected using a suitable luminometer [Milligan G, Marshall F, Rees S, Trends in Pharmacological Sciences 17, 235-237 (1996)].
Vasopressin V1a Receptor Cell Lines:
On the day before the assay, the cells are plated out in culture medium (DMEM/F12, 2% FCS, 2 mM glutamine, 10 mM HEPES, 5 μg/ml coelenterazine) in 384-well microtiter plates and kept in a cell incubator (96% humidity, 5% v/v CO2, 37° C.). On the day of the assay, test compounds in various concentrations are placed for 10 minutes in the wells of the microtiter plate before the agonist [Arg]-vasopressin at EC50 concentration is added. The resulting light signal is measured immediately in a luminometer.
(§3) Table 1A below lists individual IC50 values for the compounds of the invention (including racemic mixtures as well as separated enantiomers) that were obtained from cell lines transfected with the human V1a or V2 receptor: […]

In the next assay the target is T2, human V2 receptor (Homo sapiens, UniProt P30518).
T2 construct: expressed in transfected cells; host or cells: CHO K1 (ATCC) expressing firefly luciferase under a CRE-responsive promoter
T2 sequence (P30518 whole entry): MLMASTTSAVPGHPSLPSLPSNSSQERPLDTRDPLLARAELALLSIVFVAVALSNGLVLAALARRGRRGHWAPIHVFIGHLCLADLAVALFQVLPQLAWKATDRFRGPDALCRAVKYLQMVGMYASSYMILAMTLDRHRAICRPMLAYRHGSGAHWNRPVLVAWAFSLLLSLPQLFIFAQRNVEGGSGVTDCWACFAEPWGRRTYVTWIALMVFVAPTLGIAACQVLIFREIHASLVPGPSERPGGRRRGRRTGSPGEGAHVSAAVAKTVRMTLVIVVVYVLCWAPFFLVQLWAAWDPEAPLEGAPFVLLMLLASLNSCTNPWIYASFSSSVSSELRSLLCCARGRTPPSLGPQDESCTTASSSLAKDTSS
Nature of the assay: Cellular in vitro assay for determining vasopressin receptor activity, V2 receptor cell line (CHO, CRE-luciferase). The note with it: CHO cell line transfected with human V2 receptor; [Arg8]-vasopressin at EC50 concentration, 3 hours; read-out: IC50 hV2. The format is cell-based. As to the method: as §1, §2
Vasopressin V2 Receptor Cell Lines:
On the day before the assay, the cells are plated out in culture medium (DMEM/F12, 2% FCS, 2 mM glutamine, 10 mM HEPES) in 384-well microtiter plates and kept in a cell incubator (96% humidity, 5% v/v CO2, 37° C.). On the day of the assay, test compounds in various concentrations and the agonist [Arg^8]-vasopressin at EC50 concentration are added together to the wells, and plates are incubated for 3 hours in a cell incubator. Upon addition of the cell lysis reagent Triton™ and the substrate luciferin, luminescence of firefly luciferase is measured in a luminometer.
as §3

Each structure is given as a SMILES string.

We go through 13 compounds from US11173151B2, “Substituted triazole derivatives and uses thereof” (BAYER AKTIENGESELLSCHAFT, priority 2017, dated 2021).

T1 sequence (P37288 whole entry): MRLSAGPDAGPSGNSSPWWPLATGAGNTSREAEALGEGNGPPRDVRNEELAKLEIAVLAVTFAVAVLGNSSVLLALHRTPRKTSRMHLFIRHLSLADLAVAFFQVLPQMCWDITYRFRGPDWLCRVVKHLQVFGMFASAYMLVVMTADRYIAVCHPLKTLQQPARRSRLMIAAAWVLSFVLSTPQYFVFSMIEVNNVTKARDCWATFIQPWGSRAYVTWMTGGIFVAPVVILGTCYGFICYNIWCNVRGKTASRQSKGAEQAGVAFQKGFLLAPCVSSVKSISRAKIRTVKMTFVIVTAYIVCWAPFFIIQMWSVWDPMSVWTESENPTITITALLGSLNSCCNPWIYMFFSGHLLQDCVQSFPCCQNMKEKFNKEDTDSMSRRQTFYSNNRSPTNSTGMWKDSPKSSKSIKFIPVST

A word on the IC50: it is the midpoint of a concentration-inhibition curve. Take `O=C(NCC(O)CO)c1ccccc1-n1cnc(Cn2nc(-c3ccc(Cl)cc3)n(C[C@H](O)C(F)(F)F)c2=O)n1` (mixture of isomers) [Example 297, 2-[3-({3-(4-Chlorophenyl)-5-oxo-4-[(2S)-3,3,3-trifluoro-2-hydroxypropyl]-4,5-dihydro-1H-1,2,4-triazol-1-yl}methyl)-1H-1,2,4-triazol-1-yl]-N-[2,3-dihydroxypropyl]benzamide]: at human V1a receptor, the concentration for half-maximal inhibition (IC50) stood at 0.00505 µM and the “ratio IC50 hV2/hV1a” value worked out at 277.2. Moreover, on human V2 receptor, the IC50 was found to be 1.4 µM.

As for `O=C(c1ccccc1-n1cnc(Cn2nc(-c3ccc(Cl)cc3)n(C[C@H](O)C(F)(F)F)c2=O)n1)N1CCC(O)C1` (mixture of isomers) [Example 298, 5-(4-Chlorophenyl)-2-{[1-(2-{[3-hydroxypyrrolidin-1-yl]carbonyl}phenyl)-1H-1,2,4-triazol-3-yl]methyl}-4-[(2S)-3,3,3-trifluoro-2-hydroxypropyl]-2,4-dihydro-3H-1,2,4-triazol-3-one], the 50% inhibitory concentration (IC50) was determined as 0.0033 µM on human V1a receptor and 1.54 µM at human V2 receptor. The “ratio IC50 hV2/hV1a” value at human V1a receptor came out at 468.2.

With `CC1CCCCC1NC(=O)c1ccccc1-n1cnc(Cn2nc(-c3ccc(Cl)cc3)n(C[C@H](O)C(F)(F)F)c2=O)n1` (mixture of isomers) [Example 319, 2-[3-({3-(4-Chlorophenyl)-5-oxo-4-[(2S)-3,3,3-trifluoro-2-hydroxypropyl]-4,5-dihydro-1H-1,2,4-triazol-1-yl}methyl)-1H-1,2,4-triazol-1-yl]-N-(2-methylcyclohexyl)benzamide], on human V1a receptor, the 50% inhibitory concentration (IC50) was 0.00355 µM and the “ratio IC50 hV2/hV1a” value was determined as 91.5. Also, on human V2 receptor, the half-inhibitory concentration (IC50) was found to be 0.325 µM.

Turning to `CC1CC(C)CN(C(=O)c2ccccc2-n2cnc(Cn3nc(-c4ccc(Cl)cc4)n(C[C@H](O)C(F)(F)F)c3=O)n2)C1` (mixture of isomers) [Example 326, 5-(4-Chlorophenyl)-2-[(1-{2-[(3,5-dimethylpiperidin-1-yl)carbonyl]phenyl}-1H-1,2,4-triazol-3-yl)methyl]-4-[(2S)-3,3,3-trifluoro-2-hydroxypropyl]-2,4-dihydro-3H-1,2,4-triazol-3-one], on human V1a receptor, the IC50 is 0.0083 µM and the “ratio IC50 hV2/hV1a” value worked out at 180.7. For the same compound, the half-inhibitory concentration (IC50) at human V2 receptor was 1.5 µM.

As for `CC1CCC(C)N1C(=O)c1ccccc1-n1cnc(Cn2nc(-c3ccc(Cl)cc3)n(C[C@H](O)C(F)(F)F)c2=O)n1` (mixture of isomers) [Example 328, 5-(4-Chlorophenyl)-2-[(1-{2-[(2,5-dimethylpyrrolidin-1-yl)carbonyl]phenyl}-1H-1,2,4-triazol-3-yl)methyl]-4-[(2S)-3,3,3-trifluoro-2-hydroxypropyl]-2,4-dihydro-3H-1,2,4-triazol-3-one], at human V1a receptor, the IC50 came out at 0.00795 µM and the “ratio IC50 hV2/hV1a” value is 270.4. For the same compound, on human V2 receptor, the IC50 is 2.15 µM.

With `CC1CCCC(C)N1C(=O)c1ccccc1-n1cnc(Cn2nc(-c3ccc(Cl)cc3)n(C[C@H](O)C(F)(F)F)c2=O)n1` (mixture of isomers) [Example 337, 5-(4-Chlorophenyl)-2-[(1-{2-[(2,6-dimethylpiperidin-1-yl)carbonyl]phenyl}-1H-1,2,4-triazol-3-yl)methyl]-4-[(2S)-3,3,3-trifluoro-2-hydroxypropyl]-2,4-dihydro-3H-1,2,4-triazol-3-one], the concentration for half-maximal inhibition (IC50) at human V1a receptor worked out at 0.0235 µM; on human V2 receptor, 1.08 µM. For the same compound, the “ratio IC50 hV2/hV1a” value at human V1a receptor is listed as 46.2.

Turning to `CC(C)C(C)NC(=O)c1ccccc1-n1cnc(Cn2nc(-c3ccc(Cl)cc3)n(C[C@H](O)C(F)(F)F)c2=O)n1` (mixture of isomers) [Example 345, 2-[3-({3-(4-Chlorophenyl)-5-oxo-4-[(2S)-3,3,3-trifluoro-2-hydroxypropyl]-4,5-dihydro-1H-1,2,4-triazol-1-yl}methyl)-1H-1,2,4-triazol-1-yl]-N-[(2R)-3-methylbutan-2-yl]benzamide], at human V1a receptor, the IC50 was determined as 0.0032 µM and the “ratio IC50 hV2/hV1a” value is 37.2. Moreover, the IC50 at human V2 receptor is 0.119 µM.

`CC1CCCN(C(=O)c2ccccc2-n2cnc(Cn3nc(-c4ccc(Cl)cc4)n(C[C@H](O)C(F)(F)F)c3=O)n2)C1` (mixture of isomers) [Example 351, 5-(4-Chlorophenyl)-2-{[1-(2-{[3-methylpiperidin-1-yl]carbonyl}phenyl)-1H-1,2,4-triazol-3-yl]methyl}-4-[(2S)-3,3,3-trifluoro-2-hydroxypropyl]-2,4-dihydro-3H-1,2,4-triazol-3-one]: the IC50 turned out to be 0.0027 µM at human V1a receptor and 0.95 µM on human V2 receptor. Also, the “ratio IC50 hV2/hV1a” value at human V1a receptor is recorded as 351.9.

With `CC1CCCN1C(=O)c1ccccc1-n1cnc(Cn2nc(-c3ccc(Cl)cc3)n(C[C@H](O)C(F)(F)F)c2=O)n1` (mixture of isomers) [Example 355, 5-(4-Chlorophenyl)-2-{[1-(2-{[2-methylpyrrolidin-1-yl]carbonyl}phenyl)-1H-1,2,4-triazol-3-yl]methyl}-4-[(2S)-3,3,3-trifluoro-2-hydroxypropyl]-2,4-dihydro-3H-1,2,4-triazol-3-one], the IC50 on human V1a receptor worked out at 0.00175 µM; at human V2 receptor, 0.635 µM. For the same compound, on human V1a receptor, the “ratio IC50 hV2/hV1a” value was 362.9.

`O=C(NC1CC1F)c1ccccc1-n1cnc(Cn2nc(-c3ccc(Cl)cc3)n(C[C@H](O)C(F)(F)F)c2=O)n1` (mixture of isomers) [Example 364, 2-[3-({3-(4-Chlorophenyl)-5-oxo-4-[(2S)-3,3,3-trifluoro-2-hydroxypropyl]-4,5-dihydro-1H-1,2,4-triazol-1-yl}methyl)-1H-1,2,4-triazol-1-yl]-N-(2-fluorocyclopropyl)benzamide]: on human V1a receptor, the half-inhibitory concentration (IC50) was found to be 0.00047 µM and the “ratio IC50 hV2/hV1a” value came to 329.8. The IC50 at human V2 receptor was determined as 0.155 µM.

As for `O=C(NCC(O)C(F)(F)F)c1cccc(Cl)c1-n1cnc(Cn2nc(-c3ccc(Cl)cc3)n(C[C@H](O)C(F)(F)F)c2=O)n1` (mixture of isomers) [Example 367, 3-Chloro-2-[3-({3-(4-chlorophenyl)-5-oxo-4-[(2S)-3,3,3-trifluoro-2-hydroxypropyl]-4,5-dihydro-1H-1,2,4-triazol-1-yl}methyl)-1H-1,2,4-triazol-1-yl]-N-[3,3,3-trifluoro-2-hydroxypropyl]benzamide], the IC50 on human V1a receptor stood at 0.045 µM; at human V2 receptor it was 0.26 µM. Moreover, the “ratio IC50 hV2/hV1a” value on human V1a receptor is on record as 5.8.

`O=C(NCC(O)C(F)(F)F)c1cccc(Cl)c1-n1cnc(Cn2nc(-c3ccc(Cl)cc3)n(C[C@@H](O)C(F)(F)F)c2=O)n1` (mixture of isomers) [Example 368, 3-Chloro-2-[3-({3-(4-chlorophenyl)-5-oxo-4-[(2R)-3,3,3-trifluoro-2-hydroxypropyl]-4,5-dihydro-1H-1,2,4-triazol-1-yl}methyl)-1H-1,2,4-triazol-1-yl]-N-[3,3,3-trifluoro-2-hydroxypropyl]benzamide]: at human V1a receptor, the IC50 was found to be 0.35 µM and the “ratio IC50 hV2/hV1a” value is recorded as 6.0. Also, the IC50 at human V2 receptor was 2.1 µM.

For the compound `O=C(NC1CC1(F)F)c1cccc(Cl)c1-n1cnc(Cn2nc(-c3ccc(Cl)cc3)n(C[C@H](O)C(F)(F)F)c2=O)n1` (mixture of isomers) [Example 371, 3-Chloro-2-[3-({3-(4-chlorophenyl)-5-oxo-4-[(2S)-3,3,3-trifluoro-2-hydroxypropyl]-4,5-dihydro-1H-1,2,4-triazol-1-yl}methyl)-1H-1,2,4-triazol-1-yl]-N-[2,2-difluorocyclopropyl]benzamide], the IC50 on human V1a receptor came out at 0.015 µM; on human V2 receptor, 0.71 µM. Further, the “ratio IC50 hV2/hV1a” value at human V1a receptor turned out to be 47.3.
